Data from patent US5158950A, “1,3-dithiol-2-ylidene derivatives and process for the preparation thereof” (Yuhan Corporation, Ltd., priority 1987, dated 1992).

Experiments:
[1] = Acute oral toxicity, median lethal dose (LD50); conditions: mouse, in vivo, male ICR mice, deaths counted for 14 days
Description: Each test compound was suspended in a 0.2% CMC-Na solution in various concentrations to make test suspension. The test suspensions were administered orally to male ICR mice (10 in each group) at various doses. The number of dead mice was counted for 14 days and the value of mediam lethal dose (LD50, g/kg) was calculated by the Hitchifield-Wilcoxon method.

[2] = tested on: serum ALT activity induced by CCl4; test: Protective effect against acute hepatic damage induced by carbon tetrachloride (serum ALT); type: in vivo; conditions: Mus musculus; mice, 50 mg/kg oral, 6 h before CCl4 (50 ul/kg oral); ALT 24 h after CCl4; read-out: Inhibitory (%): protective effect against increase of serum ALT activity induced by CCl4
Description: Principle; Carbon tetrachloride (CCl4) is a well-known hepatotoxic agent, thus widely used to produce experimental animal models for screening the potential drugs acting upon hepatic diseases. In this experiment test compounds were administered to mice prior to treatment with CCl4. 24 Hours after the CCl4 treatment, the animals were sacrificed and serum alanine aminotransferase (ALT) levels were determined. The hepatoprotective effect of a test compound was evaluated by the suppressive action against the increase of serum ALT induced by CCl4.
Method; The experimental animals were divided into normal, CCl4 treated and test compound treated groups. Each group consisted of 8 mice with body weight of 20-25 grams. The test compounds were suspended in 0.2% sodium carboxy methyl cellulose (CMC-Na) solution and administered orally at the dose of 50 mg/125 ml/kg body weight. Only the vehicle, 0.2% CMC-Na solution, was administered to the normal and to the CCl4 treated group instead of the test compound suspension. 6 Hours after the drug administration, the CCl4 solution in olive oil was administered orally to the CCl4 treated- and the test compound treated group at the dose of 50 ul/25 ml olive oil/kg body weight. The normal group was administered olive oil only at the same dose. 24 Hours after the CCl4 administration, blood samples were collected from the orbital sinus of the animals and the sera were obtained by centrifugation The serum ALT activities were monitored using an automatic blood analyzer (Gilford, SBA 300). The hepatoprotective effect of the test compounds was expressed by the suppressive percentage against the increase of serum ALT level induced by CCl4 calculated by the following formula; [formula]

[3] = tested on: serum ALT level after CCl4 treatment; test: Determination of 50% inhibitory dose (ID50) against CCl4-induced serum ALT increase; type: in vivo; conditions: Mus musculus; mice, oral, 6 h before CCl4; estimated from dose-response curve at 50, 25, 12.5, 6.25 mg/kg
Description: Principle The various doses of test compounds were administered to mice, followed by the treatment with CCl4 after 6 hours. 24 Hours after the CCl4 treatment, the serum ALT level of the animals were determined. The hepatoprotective effect of the test compounds and the doses were plotted to form dose-response curves. The ID50 doses of the test compounds were estimated from the dose-response curves.
Method; The experimental animals were divided into normal, CCl4 treated and test compound treated groups. Each group consisted of 8 mice with body weight of 20-25 grams. The test compounds were suspended in 0.2% CMC-Na solution and administered orally at a dose of 50 mg, 25 mg, 12.5 mg, or 6.25 mg/125 ml/kg body weight. Only the vehicle, 0.2% CMC-Na solution, was administered to the normal and to the CCl4 treated group instead of the test compound suspension. 6 Hours after the drug administration, the CCl4 solution in olive oil was administered orally to the CCl4 treated and the test compound treated groups at the dose of 50 ul/25 ml olive oil/kg body weight. The normal group was administered olive oil only at the same dose. 24 Hours after the CCl4 administration, blood samples were collected from the orbital sinus of the animals and the sera were obtained by centrifugation. The serum ALT activities were monitored and the hepatoprotective effect of the test compounds were calculated by the same method as described in experiment 1. The inhibitory percentages were plotted against the corresponding doses of the test compounds to make dose-response curves. The 50% inhibitory dose of test compound was estimated from the dose-response curve.

SMILES	LD50 at 336 h [1] [mg/kg]	inhibition in vivo at 50 mg/kg [2] [%]	ED50 [3] [mg/kg]
Cc1nnc(NC(=O)C(C(=O)OC(C)C)=C2SC=CS2)s1 [18(j)]	> 5000	100	10
CC(C)OC(=O)C(C(=O)Nc1nccs1)=C1SC=CS1 [19(a), Isopropyl 2-(b 1,3-dithiol-2-ylidene)-2-[N-(2-thiazolyl)-carbamoyl) acetate]	> 5000	100	6.25
CC(C)OC(=O)C(C(=O)Nc1ccc(Cl)cn1)=C1SC=CS1 [18(g)]	> 5000	77.3	25
CC(C)OC(=O)C(C(=O)Nc1ccc(O)cc1)=C1SC=CS1 [22(a), Isopropyl 2-(1,3-dithiol-2-ylidene)-2-[N-(4-hydroxyphenyl)carbamoyl]acetate]	> 5000	99.2	12.5
CC(C)OC(=O)C(C(=O)Nc1cc[nH]n1)=C1SC=CS1 [20(a), Isopropyl 2-(1,3-dithiol-2-ylidene)-2-[N-(3-pyrazolyl)-carbamoyl]acetate]	5000	102	8
CCC(C)OC(=O)C(C(=O)Nc1ccc(OC)cc1)=C1SC=CS1 (centres unmarked) [17(n), sec-Butyl 2-(1,3-dithiol-2-ylidene)-2-[N-(4-methoxyphenyl)carbamoyl]acetate]	> 5000	96.5	10
CCOC(=O)C(C(=O)Nc1ccc(OC)cc1)=C1SC=CS1 [17(m), Ethyl 2-(1,3-dithiol-2-ylidene)-2-[N-(4-methoxyphenyl)carbamoyl]acetate]	–	61.5	50
COC(=O)C(C(=O)Nc1ccccc1)=C1SC=CS1 [17(d), Methyl 2-(1,3-dithiol-2-ylidene)-2-(N-phenylcarbamoyl)acetate]	–	98.2	20
CC(C)OC(=O)C(C(=O)Nc1ccccn1)=C1SC=CS1 [18(a), Isopropyl 2-(1,3-dithiol-2-ylidene)-2-[N-(2-pyridyl)carbamoyl]acetate]	4200	99.8	< 6.25
Cc1csc(NC(=O)C(C(=O)OC(C)C)=C2SC=CS2)n1 [19(d), Isopropyl 2-(1,3-dithiol-2-ylidene)-2-[N-(4-methyl-2-thiazolyl)carbamoyl]acetate]	5000	97.2	< 6.25
Cc1cc(NC(=O)C(C(=O)OC(C)C)=C2SC=CS2)no1 [18(h), Isopropyl 2-(1,3-dithiol-2-ylidene)-2-[N-(5-methyl-3-isoxazolyl)carbamoyl]acetate]	> 5000	100	9
CC(C)OC(=O)C(C(=O)Nc1nncs1)=C1SC=CS1 [18(i), Isopropyl 2-(1,3-dithiol-2-ylidene)-2-[N-(1,3,4-thiadiazol-2-yl)carbamoyl]acetate]	> 5000	100	< 6.25
CCOC(=O)C(C(=O)Nc1ccc(O)cc1)=C1SC=CS1 [22(b), Ethyl 2-(1,3-dithiol-2-ylidene)-2-[N-(4-hydroxyphenyl)-carbamoyl]acetate]	–	90.9	< 12.5
CCOC(=O)C(C(=O)Nc1ccccc1)=C1SC=CS1 [17(c), Ethyl 2-(1,3-dithiol-2-ylidene)-2-(N-phenylcarbamoyl)acetate]	> 5000	100	8
CC(C)OC(=O)C(C(=O)Nc1nnn[nH]1)=C1SC=CS1 [20(b), Isopropyl 2-(1,3-dithiol-2-ylidene)-2-[N-(5-tetrazolyl)-carbamoyl]acetate]	5000	99.9	10
CCC(C)OC(=O)C(C(=O)Nc1nccs1)=C1SC=CS1 (centres unmarked) [19(c), sec-Butyl 2-(1,3-dithiol-2-ylidene)-2-[N-(2-thiazolyl)-carbamoyl]acetate]	–	100	< 6.25
CC(C)OC(=O)C(C(=O)Nc1[nH]cnc1C(N)=O)=C1SC=CS1 [18(o), Isopropy 2-(1,3-dithiol-2-ylidene)-2-[N-(4-carboxamido-5-imidazolyl)carbamoyl]acetate]	> 5000	98.7	25
CCOC(=O)C(C(=O)Nc1nccs1)=C1SC=CS1 [19(b)]	2500	101	6.25
CC(C)OC(=O)C(C(=O)Nc1ccncc1)=C1SC=CS1 [18(d), Isopropyl 2-(1,3-dithiol-2-ylidene)-2-[N-(4-pyridyl)carbamoyl]acetate]	1100	99.7	< 6.25
CCC(C)OC(=O)C(C(=O)Nc1ccccc1)=C1SC=CS1 (centres unmarked) [17(b), sec-Butyl 2-(1,3-dithiol-2-ylidene)-2-(N-phenylcarbamoyl)acetate]	> 5000	99.8	12.5
CCOC(=O)C(C(=O)NC1CCSC1=O)=C1SC=CS1 (centres unmarked) [14(b), Ethyl 2-(1,3-dithiol-2-ylidene)-2-[N-(tetrahydrothiophen-2-on-3-yl)carbamoyl]acetate]	> 4000	88.7	25
CC(C)OC(=O)C(C(=O)Nc1ccccc1)=C1SC=CS1 [17(a), Isopropyl 2-(1,3-dithiol-2-ylidene)-2-(N-phenylcarbamoyl)acetate]	3000	100	8
CC(C)OC(=O)C(C(=O)NC1CCSC1=O)=C1SC=CS1 (centres unmarked) [14(a)]	> 5000	99.2	10
Cc1cnc(NC(=O)C(C(=O)OC(C)C)=C2SC=CS2)s1 [19(e), Isopropyl 2-(1,3-dithiol-2-ylidene)-2-[N-(5-methyl-2-thiazolyl)carbamoyl]acetate]	–	9.2	25
Cc1ccnc(NC(=O)C(C(=O)OC(C)C)=C2SC=CS2)c1 [18(e), Isopropyl 2-(1,3-dithiol-2-ylidene)-2-[N-(4-methyl-2-pyridyl)carbamoyl]acetate]	> 5000	99.7	20
CC(C)OC(=O)C(C(=O)Nc1cnccn1)=C1SC=CS1 [18(l), Isopropyl 2-(1,3-dithiol-2-ylidene)-2-[N-(pyrazin-2yl)carbamoyl]acetate]	> 5000	99.8	< 6.25
Cc1cccc(NC(=O)C(C(=O)OC(C)C)=C2SC=CS2)n1 [18(f), Isopropyl 2-(1,3-dithiol-2-ylidene)-2-[N-(6-methyl-2-pyridyl)carbamoyl]acetate]	> 5000	100	12.5
CC(C)OC(=O)C(C(=O)Nc1ccc(F)c(Cl)c1)=C1SC=CS1 [17(k)]	–	93.8	6.25
CC(C)OC(=O)C(C(=O)Nc1cccnc1)=C1SC=CS1 [18(c), Isopropyl 2-(b 1,3-dithiol-2-ylidene)-2-[N-(3-pyridyl)carbamoyl]acetate]	–	100	6.25
CCC(C)OC(=O)C(C(=O)Nc1ccccn1)=C1SC=CS1 (centres unmarked) [18(b), sec-Butyl 2-(1,3-dithiol-2-ylidene)-2-[N-(2-pyridyl)carbamoyl]acetate]	5000	100	7
